PubChem BioAssay (NCI)
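Results reflect a 48-hour exposure of cells in 96-well plates to compound at five concentrations. The concentration for 50% growth inhibition is given as GI50. The concentration for full growth arrest is given as TGI.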

What was measured:
Assay in all cases: growth of human tumour cells (NCI), 48 h
OVCAR-4 ovarian = test system: OVCAR-4 ovarian
U251 CNS = test system: U251 CNS
NCI-H23 lung = test system: NCI-H23 lung
RPMI-8226 leukemia = test system: RPMI-8226 leukemia
LOX IMVI melanoma = test system: LOX IMVI melanoma
EKVX NSCLC = test system: EKVX NSCLC
K-562 leukemia = test system: K-562 leukemia
SR leukemia = test system: SR leukemia
SNB-75 CNS = test system: SNB-75 CNS
CAKI-1 renal = test system: CAKI-1 renal

| Compound | TGI (OVCAR-4 ovarian) [µM] | TGI (U251 CNS) [µM] | TGI (NCI-H23 lung) [µM] | TGI (RPMI-8226 leukemia) [µM] | TGI (LOX IMVI melanoma) [µM] | TGI (EKVX NSCLC) [µM] | TGI (K-562 leukemia) [µM] | TGI (SR leukemia) [µM] | TGI (SNB-75 CNS) [µM] | TGI (CAKI-1 renal) [µM] | GI50 (OVCAR-4 ovarian) [µM] | GI50 (U251 CNS) [µM] | GI50 (NCI-H23 lung) [µM] | GI50 (RPMI-8226 leukemia) [µM] | GI50 (LOX IMVI melanoma) [µM] | GI50 (EKVX NSCLC) [µM] | GI50 (K-562 leukemia) [µM] | GI50 (SR leukemia) [µM] | GI50 (SNB-75 CNS) [µM] | GI50 (CAKI-1 renal) [µM] |
| --- | --- | --- | --- | --- | --- | --- | --- | --- | --- | --- | --- | --- | --- | --- | --- | --- | --- | --- | --- | --- |
| C[C@]12CCC[C@H](OC=O)C1(O)C[C@H](C(=O)O)CC2 (stereo partly drawn) | > 100 | > 100 | > 100 | > 100 | > 100 | 40.2 | > 100 | > 100 | > 100 | > 100 |  |  |  |  |  |  |  |  |  |  |
| N=c1nc(N)c2cc3c(N)nc(=N)c3cc12 | 51.2 | 43.5 | > 100 | 23.9 | > 52.2 | 75.3 | 9.57 | 56.5 | 42.6 | 41.6 |  |  |  |  |  |  |  |  |  |  |
| CCC[CH2][Sn]1([CH2]CCC)[O]C(c2ccccn2)S(=O)(=O)[O]1 (stereo not drawn) | 20.1 | 11.8 | 3.5 | 6.46 | 3.07 | 5.61 | 6.72 | 6.62 | 7.26 | 3.63 | 6.86 | 2.96 | 1.72 | 2.23 | 1.64 | 2.29 | 2.14 | 2.45 | 2.53 | 1.58 |
| COc1ccc(C(=S)c2cc(OC)c(OC)c(OC)c2)cc1OC(=O)CCl | > 100 | > 100 | > 100 | 25.2 | > 100 | > 100 | > 100 | > 100 | > 100 | 52.1 | 0.073 | 0.0341 | 0.051 | < 0.0196 | 0.0102 | 0.652 | < 0.01 | < 0.01 | < 0.0114 | 0.0449 |
| O=C(O)C1C2C=CC(O2)C1C(=O)Nc1ccccc1 (stereo not drawn) | > 100 | > 100 | > 100 | > 100 | > 100 | > 100 | > 100 | > 100 | > 100 | > 100 |  |  |  |  |  |  |  |  |  |  |
| COc1cc(N2CCC(N3CCN(C)CC3)CC2)ccc1Nc1ncc(Cl)c(Nc2ccccc2P(C)(C)=O)n1 | > 47.6 | > 100 | > 100 | 39.8 |  | > 100 | > 100 | > 33.6 | 4.83 | 9.58 | 1.3 | 3.79 | 1.62 | 3.89 | 2.8 | 0.472 | 3.45 |  | 1.66 | 1.99 |
| CC1=CC2=C(OCO1)C(=O)c1ccccc1C2=O | 8.5 | 13.3 | 8.06 | > 100 | 8.38 | > 100 | 40.3 | 41.7 | 9.1 | > 94 |  |  |  |  |  |  |  |  |  |  |
| Nn1c(CCCl)nc2c(Br)cc(Br)cc2c1=O | 69.3 | > 58 | 62.8 | 58.5 | 78.6 | > 93.7 | > 30.6 | 72 | 91.5 | > 93.2 |  |  |  |  |  |  |  |  |  |  |
